{
  "source": "patent US20020151595A1",
  "about": "“Carboxylic acid amides having antithrombotic activity” (priority 2001, published 2002)",
  "data": [
    {"biological_target": "T1, human factor Xa (Homo sapiens, UniProt P00742)", "T1 construct": "human factor Xa; purchased Roche", "T1 sequence (P00742 235-488 limits assumed)": "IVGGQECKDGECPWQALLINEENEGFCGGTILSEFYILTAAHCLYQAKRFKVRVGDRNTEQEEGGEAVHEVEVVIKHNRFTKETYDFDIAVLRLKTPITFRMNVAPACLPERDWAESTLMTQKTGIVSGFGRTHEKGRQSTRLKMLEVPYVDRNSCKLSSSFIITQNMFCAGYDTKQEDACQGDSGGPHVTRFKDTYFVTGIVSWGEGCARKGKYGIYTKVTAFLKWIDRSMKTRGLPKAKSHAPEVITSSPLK", "T1 sequence (P00742 41-179 partner limits assumed)": "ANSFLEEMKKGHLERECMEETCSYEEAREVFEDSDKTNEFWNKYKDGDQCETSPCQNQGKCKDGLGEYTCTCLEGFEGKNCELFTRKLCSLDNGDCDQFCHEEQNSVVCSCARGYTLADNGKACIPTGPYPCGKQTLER", "experiment": "Inhibition of factor Xa, enzyme-kinetic measurement with chromogenic substrate", "type": "biochemical", "conditions": "chromogenic substrate Chromozym X 200 μMol/l, pH 8.0, 37° C., photometric at 405 nm", "procedure": "Method: Enzyme-kinetic measurement with chromogenic substrate. The quantity of anpnitroaniline (pNA) released from the colourless chromogenic substrate by human factor Xa is determined photometrically at 405 nm. It is proportional to the activity of the enzyme used. The inhibition of the enzyme activity by the test substance (in relation to the solvent control) is determined at various concentrations of test substance and from this the IC50 is calculated, as the concentration which inhibits the factor Xa used by 50%.\nMaterial: Tris(hydroxymethyl)-aminomethane buffer (100 mmol) and sodium chloride (150 mMol), pH 8.0\nFactor Xa (Roche), spec. activity: 10 U/0.5 ml, final concentration: 0.175 U/ml per reaction mixture\nSubstrate Chromozym X (Roche), final concentration: 200 μMol/l per reaction mixture\nProcedure: 10 μl of a 23.5-times concentrated starting solution of the test substance or solvent (control), 175 μl of tris(hydroxymethyl)-aminomethane buffer and 25 μl of a 1.65 U/ml Factor Xa working solution are incubated for 10 minutes at 37° C. After the addition of 25 μl of Chromozym X working solution ([…]) the sample is measured in a photometer (SpectraMax 250) at 405 nm for 150 seconds at 37° C.\n1. Determining the maximum increase (deltaOD/minutes) over 3 measuring points.\n2. Determining the % inhibition based on the solvent control.\n3. Plotting a dosage/activity curve (% inhibition vs substance concentration).\n4. Determining the IC50 by interpolating the X value (substance concentration) of the dosage/activity curve at Y=50% inhibition.", "units": {"IC50": "µM"}, "values": [
      {"smiles": "Cc1cc(NC(=O)C(C)(C)c2cccc(C(=N)N)c2)ccc1C(=O)N1CCCC1", "note": "[(1)]", "IC50": 0.028},
      {"smiles": "Cc1cc(NC(=O)Cc2cc(C(=N)N)ccc2O)ccc1C(=O)C1CCCNC1", "note": "(stereo not shown) [(2)]", "IC50": 0.32},
      {"smiles": "N=C(N)c1ccc(O)c(CC(=O)Nc2ccc(C(=O)N3CCCC3)c(Cl)c2)c1", "note": "[(3)]", "IC50": 0.033},
      {"smiles": "N=C(N)c1ccc(O)c(CC(=O)Nc2ccc(C(=O)N3CCCC3)c(C(F)(F)F)c2)c1", "note": "[(4)]", "IC50": 0.011}
    ]}
  ]
}
